Experiments:
Salmonella typhimurium = test: Chronic Salmonella typhimurium infection in the mouse; format: in vivo, female NMRI mice; conditions: 10 × 5 mg/kg i.p.; day 22
Protocol: Female NMRI mice (20 animals/group) were infected by intravenous administration of 5×10^3 Salmonella typhimurium organisms. The animals subsequently developed a chronic infection which was characterized by persistent bacterial colonization of the organs, such as the liver and the spleen, with necrosis. The test substance was administered intraperitoneally in a dose of 5 mg/kg at intervals of two days from day 3 to day 21 after infection. The animals in a control group received only the vehicle. On day 22 after the infection, the mortality in both experimental groups was determined, and the organs of the animals which survived were examined for organisms and necrosis.

B16 melanoma = test: Stimulation of defenses against B16 melanoma in the mouse; format: in vivo, female C57B1/6 mice; conditions: intervals of 2 days, day 4 to day 100
Description: A primary tumor was generated with 2×10^5 live B16 melanoma cells in female C57B1/6 mice with a body weight of 18 to 20 g and, after having grown to a diameter of 0.65 cm, was removed surgically. The animals subsequently died of metastases in the lung. The investigation now was of whether the mean survival time after removal of the primary tumor, that is to say the time at which 50% of the animals are still alive, can prolonged by intraperitoneal treatment with the compounds of the formula I. For this purpose, after amputation of the primary tumor, the mice were divided into groups each containing 10 animals and were treated with i.p. doses each of 1.25 or 2.5 mg/kg test substance at intervals of 2 days from day 4 to day 100. The animals in the control group received merely the pure vehicle PBS (physiological saline) in the same therapeutic regimen.

active Arthus reaction = test: Active Arthus reaction in the rat; format: in vivo, Sprague-Dawley rats; conditions: Rattus norvegicus, po, 4 h, oral dose 35 mg/kg, 4 h after ovalbumin challenge; read-out: Active Arthus reaction % change
Protocol: The experimental animals used were female and male Sprague-Dawley rats with a body weight between 80 and 100 g which received subcutaneous injections into the tail-head of 0.5 ml of an emulsion of pertussis vaccine and ovalbumin in liquid paraffin. After two weeks, the rats were divided into groups each of 8 animals. 24 hours and 1 hour before induction of the Arthus reaction by injection of 0.1 ml of a 0.4% strength ovalbumin solution into the right hind paw, the particular test substance or the pure vehicle (positive control) was administered orally, sodium chloride solution was injected into the left paw. One group of unsensitized animals (negative control group) was likewise treated with ovalbumin in order to be able to rule out nonspecific reactions to the protein. The parameter used for measuring the action of the product was the percentage change in the increase in paw volume compared with that in the control group which was sensitized but untreated (positive control) 4 hours after ovalbumin challenge, when the swelling had reached its maximum.

Listeria monocytogenes = test: DTH reaction in mice infected with Listeria monocytogenes; format: in vivo, female NMRI mice
Protocol: In this experiment, the specific, cell-mediated immunity against the bacterium Listeria monocytogenes was investigated by means of the DTH reaction Female NMRI mice were infected with 2×10^2 live bacteria and then divided into groups each containing 10 animals. The treatment of the animals by intraperitoneal administration of the product in doses of 0.1, 1 or 10 mg/kg was started the same day. This treatment was repeated after 2, 4 and 6 days. Infected animals in a fourth experimental group, which received merely the pure vehicle i.p. in place of the product, acted as positive control. On day 13 of the experiment the DTH reaction was induced by injection of a soluble antigen obtained from Listeria monocytogenes into the footpad. 10 uninfected animals in a 5th experimental group (negative control) were likewise treated with the antigen in order to rule out non-specific reactions to the antigen challenge 24 hours after the administration of antigen, the percentage increase in the paw volume was determined as a measure of the induced DTH reaction.
The same experimental system was also used to examine the effect of the test substance on i.p. administration of 10 mg/kg on the DTH reaction of female NMRI mice after infection with differing amounts of the bacterium Listeria monocytogenes. The animals received either 2×10^2 or 5×10^2 organisms. According to this, although the DTH reaction is increased by the test substance at both organism concentrations, this stimulation is distinctly more pronounced in the animal group infected with the lower number of organisms.

aminopeptidase B = aminopeptidase B (Homo sapiens, UniProt Q9H4A4); test: Inhibition of aminopeptidase B; format: biochemical; conditions: substrate L-lysine 2-naphthylamide, room temperature; read-out: Aminopeptidase B IC50 (converted)
Chain of aminopeptidase B (Q9H4A4 whole entry, species assumed): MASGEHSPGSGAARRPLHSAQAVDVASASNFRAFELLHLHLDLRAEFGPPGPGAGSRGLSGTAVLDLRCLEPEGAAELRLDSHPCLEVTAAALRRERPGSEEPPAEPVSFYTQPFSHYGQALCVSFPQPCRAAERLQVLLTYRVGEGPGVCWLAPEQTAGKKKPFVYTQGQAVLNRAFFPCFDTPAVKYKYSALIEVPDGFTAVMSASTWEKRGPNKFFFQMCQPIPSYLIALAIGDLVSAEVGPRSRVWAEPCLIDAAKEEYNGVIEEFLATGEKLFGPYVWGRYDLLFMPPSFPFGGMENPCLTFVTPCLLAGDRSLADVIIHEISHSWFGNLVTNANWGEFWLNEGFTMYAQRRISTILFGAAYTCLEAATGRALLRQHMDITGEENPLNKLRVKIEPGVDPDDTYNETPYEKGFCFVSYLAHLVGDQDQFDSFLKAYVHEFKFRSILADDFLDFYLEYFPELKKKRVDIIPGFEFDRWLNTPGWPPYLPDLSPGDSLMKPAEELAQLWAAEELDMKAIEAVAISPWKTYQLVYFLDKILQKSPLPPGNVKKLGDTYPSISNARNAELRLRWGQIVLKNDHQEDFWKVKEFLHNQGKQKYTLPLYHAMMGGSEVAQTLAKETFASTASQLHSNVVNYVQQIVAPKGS
Protocol: The activity of the enzyme aminopeptidase B was determined photometrically using the substrate L-lysine 2-naphthylamide at room temperature. […] In the same way, the inhibition of leucine aminopeptidase was investigated using L-leucine 4-nitroanilide as enzyme substrate. The IC50 values are compiled in Table 6.

## O=P(O)(O)C1CC(c2ccccc2)=NO1 (racemic) [Example 34, 3-Phenyl-2-isoxazolin-5-ylphosphonic acid]
Salmonella typhimurium
  % of surviving animals with liver necroses: 58%
  % of surviving animals with organism-positive livers: 67%
  % of surviving animals with severe liver necroses: 42%
  % of surviving animals with spleen necroses: 0%
  Mortality: 8/20
B16 melanoma; 1.25 mg/kg i.p.
  % survival after 100 days: 20%
  Mean survival time: 41 days
B16 melanoma; 2.50 mg/kg i.p.
  % survival after 100 days: 30%
  Mean survival time: 43 days
Active Arthus reaction
  change in vivo at 35 mg/kg: -16%
Listeria monocytogenes; 2×10^2 bacteria, 0.1 mg/kg 4 × i.p.
  DTH reaction % increase in the paw volume: 13.3 ± 9.7%
Listeria monocytogenes; 2×10^2 bacteria, 1.0 mg/kg 4 × i.p.
  DTH reaction % increase in the paw volume: 15.0 ± 7.0%
Listeria monocytogenes; 2×10^2 bacteria, 10.0 mg/kg 4 × i.p., p <0.05 (Student's t test)
  DTH reaction % increase in the paw volume: 19.2 ± 9.4%
Listeria monocytogenes; Table 13 experiment: 2 × 10^2 organisms, 4 × 10 mg/kg i.p.
  DTH reaction % increase in the paw volume: 30.9 ± 15.3%
Listeria monocytogenes; Table 13 experiment: 5 × 10^2 organisms, 4 × 10 mg/kg i.p.
  DTH reaction % increase in the paw volume: 17.9 ± 12.1%
Aminopeptidase B
  IC50: 99.1 µM

From patent US5006515A, “Pharmaceuticals, phosphorus-containing 2-isoxazolines and isoxazoles contained therein” (Hoechst Aktiengesellschaft, priority 1987, dated 1991)
